Reference: PubChem BioAssay (NCI)
Values joined by “and” are separate entries in the source; they are usually repeats but may differ in a detail not shown here. Equal entries are not always repeated.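 Cells were grown in 96-well plates and exposed to each compound for 48 hours at five concentrations; endpoints were interpolated linearly between bracketing concentrations, or set to the highest concentration if not reached. GI50 marks 50% less growth. TGI: total growth inhibition.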

Experiments:
Assay in all cases: NCI tumour cell line growth inhibition, 48 h
ACHN renal = system: ACHN renal
786-0 renal = system: 786-0 renal
MCF7 breast = system: MCF7 breast
NCI-H226 lung = system: NCI-H226 lung
SR leukemia = system: SR leukemia
UACC-62 melanoma = system: UACC-62 melanoma
IGROV1 ovarian = system: IGROV1 ovarian
RXF 393 renal = system: RXF 393 renal
HOP-62 NSCLC = system: HOP-62 NSCLC
EKVX NSCLC = system: EKVX NSCLC
SNB-75 CNS = system: SNB-75 CNS

SMILES | TGI (ACHN renal) [µM] | TGI (786-0 renal) | TGI (MCF7 breast) | TGI (NCI-H226 lung) [µM] | TGI (SR leukemia) [µM] | TGI (UACC-62 melanoma) | TGI (IGROV1 ovarian) [µM] | TGI (RXF 393 renal) | TGI (HOP-62 NSCLC) | TGI (EKVX NSCLC) [µM] | TGI (SNB-75 CNS) | GI50 (IGROV1 ovarian)
COC(=O)/C=C/[C@H]1[C@H](C)N1S(=O)(=O)c1ccc(C)cc1 (stereo partly drawn) | > 100 | > 100 µM | > 100 µM | > 100 | > 100 | > 100 µM | > 100 | > 100 µM | > 100 µM | > 100 | – | –
CC(=O)Oc1ccc(C2SCc3nc4ccccc4n32)cc1 (stereo not drawn) | > 100 | > 100 µM | > 100 µM | – | > 73 | > 100 µM | > 100 | 77.3 µM | > 100 µM | > 100 | 77.2 µM | –
COc1ccc2oc(=O)c(-c3nc4ccccc4s3)cc2c1 | 12.7 | 20.5 µM | – | > 63.1 | > 100 | > 100 µM | 38.9 | 31 µM | > 48.1 µM | > 65 | 27.5 µM | –
COC(=O)CCC(=O)c1ccc2c(c1)CC1(Cc3ccccc3C1)C2 | > 100 | > 100 µM | > 100 µM | 94.9 | 34 | > 100 µM | > 100 | > 100 µM | > 100 µM | > 100 | – | –
COc1ccc(-c2c(C#N)c(N)n(C3OC(COC(C)=O)C(OC(C)=O)C(OC(C)=O)C3OC(C)=O)c(=S)c2C#N)cc1 (stereo not drawn) | > 100 | > 100 µM and 75.5 µM | > 100 µM and 60.9 µM | > 100 | – | 73.4 µM and 47.3 µM | > 100 | 84.6 µM and 72.2 µM | 89.1 µM and 51.6 µM | > 100 | 63.4 µM and 50.9 µM | > 100 µM and 31.6 µM
COC(=O)Cc1c(-c2c(CC(=O)OC)c3ccccc3n2C2OC(COC3OC(COC(C)=O)C(OC(C)=O)C(OC(C)=O)C3OC(C)=O)C(O)C(O)C2O)[nH]c2ccccc12 (stereo not drawn) | > 100 | > 100 µM | > 100 µM | > 100 | > 100 | > 100 µM | > 100 | – | 70.9 µM | > 100 | – | –
CNC(=S)c1nnsc1N | > 100 | > 100 µM | > 100 µM | > 100 | – | > 100 µM | > 100 | > 100 µM | > 100 µM | > 100 | > 100 µM | –
Cc1cn(C2CC(/[N+]([O-])=N\Nc3ccc([N+](=O)[O-])cc3)C(CO)O2)c(=O)[nH]c1=O (stereo not drawn) | > 100 | > 100 µM | – | > 100 | > 100 | > 100 µM | > 100 | > 100 µM | > 100 µM | > 100 | – | –
O=CC1C(=O)Nc2nc3ccccc3n2C1c1ccccc1 (stereo not drawn) | 42.7 | 24.9 µM | 27.4 µM | 36.9 | – | 31.9 µM | 27.3 | 16 µM | 20.2 µM | 82 | 22.3 µM | –
COc1ccc(C(CC(=O)c2ccc(O)cc2)C(C(=O)c2ccc(O)cc2)C(c2ccc(OC)cc2)C2C(=O)NC(=S)NC2=O)cc1 (stereo not drawn) | 43.6 | 44.2 µM | 33.2 µM | 40 | > 100 | 36.1 µM | 32.3 | – | 67.1 µM | – | 87.5 µM | –
CCOC(=O)C(C(=O)OCC)C(=S)NC1OC(COC(C)=O)C(OC(C)=O)C(OC(C)=O)C1OC(C)=O (stereo not drawn) | – | > 100 µM | > 100 µM | > 100 | > 100 | > 100 µM | > 100 | > 100 µM | > 100 µM | > 100 | – | –
CCOC(=O)C(/C=N/C(N)=S)=C(/O)c1ccccc1 | > 100 | > 100 µM | > 100 µM | > 100 | – | > 100 µM | > 100 | > 100 µM | > 100 µM | > 100 | > 100 µM | –
COC(=O)c1cc(OCc2cc(OCc3ccc(Br)cc3)cc(OCc3ccc(Br)cc3)c2)cc(OCc2cc(OCc3ccc(Br)cc3)cc(OCc3ccc(Br)cc3)c2)c1 | > 100 | > 100 µM | > 100 µM | > 100 | – | > 100 µM | – | – | > 100 µM | > 100 | > 100 µM | –
COc1ccc(/C=C2/C(=O)C(c3ccccc3)N(c3ccccc3)C2=O)cc1OC (stereo not drawn) | > 10 | > 10 µM | > 10 µM | > 10 | > 10 | > 10 µM | 2.28 | > 10 µM | > 10 µM | > 10 | – | –
COc1ccc(/C=C2\NC(=S)N(CN3CCOCC3)C2=O)cc1 | > 100 | > 100 µM | > 100 µM | > 100 | > 100 | > 100 µM | > 100 | – | > 100 µM | > 100 | > 100 µM | –
C[C@H](OC(=O)/C=C/c1ccc(O)c(O)c1)[C@H](C)OC(=O)/C=C/c1ccc(O)c(O)c1 | 30.5 | 20 µM | 70.7 µM | – | > 100 | 12.6 µM | 31.5 | 28.5 µM | 26.6 µM | 33 | 39.3 µM | –
C/C(=N\Nc1nc2ccccc2[nH]1)c1ccc2ccccc2n1 | 24.2 | 10.7 µM | 13.8 µM | – | 0.448 | 9.25 µM | 8.1 | 13.5 µM | 8.12 µM | 5.97 | – | –
CN1CCN(C(=S)N(C(=O)c2ccc(Cl)cc2)C2CCCCC2)CC1 | > 100 | > 100 µM | > 100 µM | > 100 | > 100 | > 100 µM | > 100 | > 100 µM | – | – | 85.2 µM | –
Cc1ccc(S(=O)(=O)N/N=C2/C3CC4CCC2C4C3)cc1 (stereo not drawn) | > 100 | > 100 µM | > 100 µM | > 100 | – | > 100 µM | > 100 | > 100 µM | > 100 µM | > 100 | > 100 µM | –
c1ccc2c[n+](Cc3ccnc4ccccc34)ccc2c1 | > 100 | > 100 µM | > 100 µM | > 100 | > 100 | > 100 µM | > 100 | > 100 µM | > 100 µM | > 100 | – | –
ClC1(Cl)C2CCOC21n1cnc2ccccc21 (stereo not drawn) | – | > 100 µM | > 100 µM | > 100 | > 100 | > 100 µM | > 100 | > 100 µM | > 100 µM | > 100 | > 100 µM | –
